The source made the active and inactive calls. The calls are words filed in the database; no cut-off is given here.
What was measured:
[1] = test system: Mus musculus; assay: Antiinflammatory activity in DSS-induced male C57BL/6 mouse model of inflammatory bowel disease assessed as reduction in weight loss at 7.5 to 15 mg/kg/day, po via gavage measured upto 14 days; format: functional, organism-based; details: dose 7.5-15 mg/kg/day, time <= 14.0 day
[2] = Immunosuppressive activity in mouse T-lymphocyte assessed as reduction in concanavalin A-induced cell proliferation incubated for 48 hrs; format: functional, cell-based
[3] = Cytotoxicity against mouse Splenocyte by MTT assay; format: toxicity, cell-based; details: splenocytes
[4] = test system: B-cell line; assay: Immunosuppressive activity in mouse B-lymphocyte assessed as reduction in LPS-induced cell proliferation incubated for 48 hrs; format: functional, cell-based
[5] = test system: Mus musculus; assay: Antiinflammatory activity in DSS-induced male C57BL/6 mouse model of inflammatory bowel disease assessed as reduction of bloody stool at 7.5 to 15 mg/kg/day, po via gavage measured upto 14 days; format: functional, organism-based; details: dose 7.5-15 mg/kg/day, time <= 14.0 day
[6] = test system: Mus musculus; assay: Antiinflammatory activity in DSS-induced male C57BL/6 mouse model of inflammatory bowel disease assessed as increase in colon length at 15 mg/kg/day, po via gavage measured upto 14 days relative to control; format: functional; details: time <= 14 day
[7] = test system: Mus musculus; assay: Antiinflammatory activity in DSS-induced male C57BL/6 mouse model of inflammatory bowel disease assessed as reduction in diarrhea at 7.5 to 15 mg/kg/day, po via gavage measured upto 14 days; format: functional, organism-based; details: dose 7.5-15 mg/kg/day, time <= 14.0 day
[8] = test system: Mus musculus; assay: Antiinflammatory activity in DSS-induced male C57BL/6 mouse model of inflammatory bowel disease assessed as increase in colon length at 7.5 mg/kg/day, po via gavage measured upto 14 days relative to control; format: functional; details: time <= 14 day
[9] = Selectivity ratio of CC50 for cytotoxicity against mouse Splenocyte to IC50 for immunosuppressive activity in mouse B-lymphocyte; format: toxicity; details: splenocytes (CC50) and B-lymphocytes (IC50)
[10] = test system: Mus musculus; assay: Antiinflammatory activity in DSS-induced male C57BL/6 mouse model of inflammatory bowel disease assessed as recovery from body weight loss at 40 mg/kg/day, po measured after 7 days relative to control; format: functional; details: time 7 day
[11] = test system: Mus musculus; assay: Antiinflammatory activity in DSS-induced male C57BL/6 mouse model of inflammatory bowel disease assessed as recovery in colon length at 40 mg/kg/day, po measured after 7 days relative to control; format: functional; details: time 7 day
[12] = Selectivity ratio of CC50 for cytotoxicity against mouse Splenocyte to IC50 for immunosuppressive activity in mouse T-lymphocyte; format: toxicity; details: splenocytes (CC50) and T-lymphocytes (IC50)
[13] = test system: Mus musculus; assay: Antiinflammatory activity in DSS-induced male C57BL/6 mouse model of inflammatory bowel disease assessed as recovery from body weight loss at 40 mg/kg/day, po measured after 7 days; format: functional, organism-based; details: time 7.0 day
[14] = test system: Mus musculus; assay: Antiinflammatory activity in DSS-induced male C57BL/6 mouse model of inflammatory bowel disease assessed as restoration of colon length at 40 mg/kg/day, po via gavage measured after 14 days relative to control; format: functional; details: time 14 day
[15] = test system: Mus musculus; assay: Antiinflammatory activity in male C57BL/6 mouse model of inflammatory bowel disease assessed as recovery of DSS-induced body weight loss at 40 mg/kg/day, po via gavage measured after 14 days relative to control; format: functional; details: time 14 day
[16] = test system: Mus musculus; assay: Antiinflammatory activity in DSS-induced male C57BL/6 mouse model of inflammatory bowel disease assessed as increase in colon length at 250 mg/kg/day, po via gavage measured upto 14 days relative to control; format: functional; details: time <= 14 day

Row | SMILES | IC50 [2] | CC50 [3] | IC50 [4] | Activity [14] | Activity [15] | also measured
1 | CC1=C(O)C(=O)C(=C2CCCC2)O1 | > 100 µM | 248 µM | > 100 µM |  |  | Activity [1]: Active; Activity [5]: Active; Activity [6]: 98.4%; Activity [7]: Active; Activity [8]: 99.2%
2 | C/C=C/C[C@@H](C)[C@@H](O)[C@H]1C(=O)N[C@@H](CC)C(=O)N(C)CC(=O)N(C)[C@@H](CC(C)C)C(=O)N[C@@H](C(C)C)C(=O)N(C)[C@@H](CC(C)C)C(=O)N[C@@H](C)C(=O)N[C@H](C)C(=O)N(C)[C@@H](CC(C)C)C(=O)N(C)[C@@H](CC(C)C)C(=O)N(C)[C@@H](C(C)C)C(=O)N1C [CYCLOSPORINE] |  |  | 0.46 µM |  |  | 
3 | CC1=C(O)C(=O)C(=C2CCOCC2)O1 | > 100 µM | 232 µM | > 100 µM |  |  | 
4 | CC(=O)OC[C@H]1O[C@@H](OC2=C(C)OC(=C3CCCCC3)C2=O)[C@H](OC(C)=O)[C@@H](OC(C)=O)[C@@H]1OC(C)=O | 4720 µM | 35.6 µM | 54 µM |  |  | selectivity ratio [9]: 0.79; Activity [10]: 30.7%; Activity [11]: 54.8%; selectivity ratio [12]: 0.92; Activity [13]: Active
5 | CCOC(=O)OC[C@H]1O[C@@H](OC2=C(C)OC(=C(C)C)C2=O)[C@H](O)[C@@H](O)[C@@H]1O | > 100 µM | 182 µM | > 100 µM |  |  | Activity [10]: 47.6%; Activity [11]: 13.3%; Activity [13]: Active
6 | COC(=O)[C@H]1O[C@@H](OC2=C(C)OC(=C(C)C)C2=O)[C@H](OC(C)=O)[C@@H](OC(C)=O)[C@@H]1OC(C)=O | > 100 µM | 212 µM | > 100 µM | 9.5% | 44.8% | 
7 | CC(C)=C1OC(C)=C(O[C@@H]2O[C@H](COC(=O)C(C)(C)C)[C@@H](OC(=O)C(C)(C)C)[C@H](OC(=O)C(C)(C)C)[C@H]2OC(=O)C(C)(C)C)C1=O | > 100 µM | > 200 µM | > 100 µM | 3.2% | 41.6% | 
8 | O=C(O)c1cc(/N=N/c2ccc(S(=O)(=O)Nc3ccccn3)cc2)ccc1O [SULFASALAZINE] |  |  |  | 9.5% | 24% | Activity [16]: 86.7%
